# In US10219516B2, “Molecules having pesticidal utility, and intermediates, compositions, and processes, related thereto” (priority 2015, dated 2019):
# Tests used:
# Assay type in all cases: in vivo
# [1] = test system: Beet Armyworm (Spodoptera exigua, LAPHEG); assay: Bioassay on Beet Armyworm (BAW), 128-well diet tray assay; details: Species BAW (Beet Armyworm), read-out: BAW (Biological Results, rating)
# Procedure, shortened: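 Test molecule dissolved in acetone-water 90:10 is applied at 50 μg/cm^2 onto artificial diet and allowed to dry. Second instar larvae, one to five per well, are then added, and trays are vented and kept at 25° C. for five to seven days before mortality is scored.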
# [2] = test system: Green Peach Aphid (Myzus persicae, MYZUPE); assay: Bioassay on Green Peach Aphid (GPA), foliar spray on infested cabbage seedlings; details: foliar, 72 h, Species GPA (Green Peach Aphid), read-out: GPA (Biological Results, rating)
# Procedure, shortened: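 Cabbage seedlings (2-3 true leaves) infested with 20-50 wingless adult and nymph aphids one day before treatment; sprayed to runoff at 200 ppm in 0.025% Tween 20 water with 20% acetone/methanol, four pots per treatment. Held three days at about 25° C; live aphids counted, % control by Abbott's correction versus solvent check.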
# [3] = test system: Cabbage Looper (Trichoplusia ni, TRIPNI); assay: Bioassay on Cabbage Looper (CL), 128-well diet tray assay; details: Trichoplusia ni; Species CL (Cabbage Looper); read-out: CL (Biological Results, rating)
# Procedure, shortened: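 Second-instar larvae, one to five per well, placed on artificial diet treated with 50 μg/cm^2 test molecule in 90:10 acetone-water, dried before infestation. Held 5–7 days at 25° C, 14:10 light-dark; percent mortality averaged over eight wells.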
# [4] = test system: Yellow Fever Mosquito (Aedes aegypti, AEDSAE); assay: Bioassay on Yellow Fever Mosquito (YFM), 96-well plate larval assay; details: Species YFM (Yellow Fever Mosquito)
# Procedure, shortened: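 Each well was scored for mortality after 3 days at room temperature under a non-evaporative lid. Test molecules came from DMSO masters (4000 ppm stock) diluted with water/acetone 90:10 and dispensed into six replicate plates, which were then infested with roughly 1-day-old larvae in liver-powder water.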
smiles,measurement,setting,value
"O=C(Nc1ccncc1)c1cc(NC(=O)[C@H]2[C@H](c3cc(Cl)cc(Cl)c3)C2(Cl)Cl)ccc1Cl (relative stereo) [F26, trans-2-Chloro-5-(2,2-dichloro-3-(3,5-dichlorophenyl)cyclopropane-1-carboxamido)-N-(pyridin-4-yl)benzamide]",pest or weed control at 50 µg/cm2,[1],50 to 100%
same,pest or weed control at 200 µg/mL,[2],0 to 80%
same,pest or weed control at 50 µg/cm2,[3],50 to 100%
same,"YFM (Biological Results, rating)",[4],A (80-100)
"O=C(Nc1cccnc1)c1cc(NC(=O)[C@H]2[C@H](c3cc(Cl)cc(Cl)c3)C2(Cl)Cl)ccc1Cl (relative stereo) [F27, trans-2-Chloro-5-(2,2-dichloro-3-(3,5-dichlorophenyl)cyclopropane-1-carboxamido)-N-(pyridin-3-yl)benzamide]",pest or weed control at 50 µg/cm2,[1],50 to 100%
same,pest or weed control at 200 µg/mL,[2],0 to 80%
same,pest or weed control at 50 µg/cm2,[3],50 to 100%
same,"YFM (Biological Results, rating)",[4],A (80-100)
"O=C(Nc1ccc(F)cc1)c1cc(NC(=O)[C@H]2[C@H](c3ccc(Cl)c(Cl)c3)C2(Cl)Cl)ccc1F (relative stereo) [F28, trans-5-(2,2-Dichloro-3-(3,4-dichlorophenyl)cyclopropane-1-carboxamido)-2-fluoro-N-(4-fluorophenyl)benzamide]",pest or weed control at 50 µg/cm2,[1],50 to 100%
same,pest or weed control at 200 µg/mL,[2],80 to 100%
same,pest or weed control at 50 µg/cm2,[3],50 to 100%
same,"YFM (Biological Results, rating)",[4],A (80-100)
"O=C(Nc1ccc(F)cc1)c1cc(NC(=O)[C@H]2[C@H](c3cc(Cl)c(Cl)c(Cl)c3)C2(Cl)Cl)ccc1F (relative stereo) [F29, trans-5-(2,2-Dichloro-3-(3,4,5-trichlorophenyl)cyclopropane-1-carboxamido)-2-fluoro-N-(4-fluorophenyl)benzamide]",pest or weed control at 50 µg/cm2,[1],50 to 100%
same,pest or weed control at 200 µg/mL,[2],0 to 80%
same,pest or weed control at 50 µg/cm2,[3],50 to 100%
same,"YFM (Biological Results, rating)",[4],A (80-100)
"COc1c(NC(=O)[C@H]2[C@H](c3cc(Cl)cc(Cl)c3)C2(Cl)Cl)cccc1C(=O)Nc1ccc(F)cc1 (relative stereo) [F30, trans-3-(2,2-Dichloro-3-(3,5-dichlorophenyl)cyclopropane-1-carboxamido)-N-(4-fluorophenyl)-2-methoxybenzamide]",pest or weed control at 50 µg/cm2,[1],50 to 100%
same,pest or weed control at 200 µg/mL,[2],0 to 80%
same,pest or weed control at 50 µg/cm2,[3],50 to 100%
same,"YFM (Biological Results, rating)",[4],A (80-100)
"O=C(Nc1cccnc1Cl)c1cc(NC(=O)[C@H]2[C@H](c3cc(Cl)cc(Cl)c3)C2(Cl)Cl)ccc1Cl (relative stereo) [F31, trans-2-Chloro-N-(2-chloropyridin-3-yl)-5-(2,2-dichloro-3-(3,5-dichlorophenyl)cyclopropane-1-carboxamido)benzamide]",pest or weed control at 50 µg/cm2,[1],50 to 100%
same,pest or weed control at 200 µg/mL,[2],80 to 100%
same,pest or weed control at 50 µg/cm2,[3],50 to 100%
same,"YFM (Biological Results, rating)",[4],A (80-100)
"N#Cc1ccc(NC(=O)c2cc(NC(=O)[C@H]3[C@H](c4cc(Cl)cc(Cl)c4)C3(Cl)Cl)ccc2Cl)cn1 (relative stereo) [F33, trans-2-Chloro-N-(6-cyanopyridin-3-yl)-5-(2,2-dichloro-3-(3,5-dichlorophenyl)cyclopropane-1-carboxamido)benzamide]",pest or weed control at 50 µg/cm2,[1],50 to 100%
same,pest or weed control at 200 µg/mL,[2],0 to 80%
same,pest or weed control at 50 µg/cm2,[3],50 to 100%
same,"YFM (Biological Results, rating)",[4],A (80-100)
"CN(C(=O)c1cc(NC(=O)[C@H]2[C@H](c3cc(Cl)cc(Cl)c3)C2(Cl)Cl)ccc1Cl)c1cccc(F)c1 (relative stereo) [F34, trans-2-Chloro-5-(2,2-dichloro-3-(3,5-dichlorophenyl)cyclopropane-1-carboxamido)-N-(3-fluorophenyl)-N-methylbenzamide]",pest or weed control at 50 µg/cm2,[1],50 to 100%
same,pest or weed control at 200 µg/mL,[2],0 to 80%
same,pest or weed control at 50 µg/cm2,[3],50 to 100%
same,"YFM (Biological Results, rating)",[4],A (80-100)
"CN(C(=O)c1cc(NC(=O)[C@H]2[C@H](c3cc(Cl)cc(Cl)c3)C2(Cl)Cl)ccc1Cl)c1ccccc1F (relative stereo) [F35, trans-2-Chloro-5-(2,2-dichloro-3-(3,5-dichlorophenyl)cyclopropane-1-carboxamido)-N-(2-fluorophenyl)-N-methylbenzamide]",pest or weed control at 50 µg/cm2,[1],50 to 100%
same,pest or weed control at 200 µg/mL,[2],80 to 100%
same,pest or weed control at 50 µg/cm2,[3],50 to 100%
same,"YFM (Biological Results, rating)",[4],A (80-100)
"Cc1cc(C#N)ccc1NC(=O)c1cc(NC(=O)[C@H]2[C@H](c3cc(Cl)cc(Cl)c3)C2(Cl)Cl)ccc1Cl (relative stereo) [F36, trans-2-Chloro-N-(4-cyano-2-methylphenyl)-5-(2,2-dichloro-3-(3,5-dichlorophenyl)cyclopropane-1-carboxamido)benzamide]",pest or weed control at 50 µg/cm2,[1],50 to 100%
same,pest or weed control at 200 µg/mL,[2],0 to 80%
same,pest or weed control at 50 µg/cm2,[3],50 to 100%
same,"YFM (Biological Results, rating)",[4],A (80-100)
"Cc1cc(F)ccc1NC(=O)c1cc(NC(=O)[C@H]2[C@H](c3cc(Cl)cc(Cl)c3)C2(Cl)Cl)ccc1Cl (relative stereo) [F37, trans-2-Chloro-5-(2,2-dichloro-3-(3,5-dichlorophenyl)cyclopropane-1-carboxamido)-N-(4-fluoro-2-methylphenyl)benzamide]",pest or weed control at 50 µg/cm2,[1],50 to 100%
same,pest or weed control at 200 µg/mL,[2],80 to 100%
same,pest or weed control at 50 µg/cm2,[3],50 to 100%
same,"YFM (Biological Results, rating)",[4],A (80-100)
"O=C(Nc1ccccc1Cl)c1cc(NC(=O)[C@H]2[C@H](c3cc(Cl)cc(Cl)c3)C2(Cl)Cl)ccc1Cl (relative stereo) [F38, trans-2-Chloro-N-(2-chlorophenyl)-5-(2,2-dichloro-3-(3,5-dichlorophenyl)cyclopropane-1-carboxamido)benzamide]",pest or weed control at 50 µg/cm2,[1],50 to 100%
same,pest or weed control at 200 µg/mL,[2],80 to 100%
same,pest or weed control at 50 µg/cm2,[3],50 to 100%
same,"YFM (Biological Results, rating)",[4],A (80-100)
"O=C(Nc1ccc(F)cc1F)c1cc(NC(=O)[C@H]2[C@H](c3ccc(Cl)c(Cl)c3)C2(Cl)Cl)ccc1Cl (relative stereo) [F39, trans-2-Chloro-5-(2,2-dichloro-3-(3,4-dichlorophenyl)cyclopropane-1-carboxamido)-N-(2,4-difluorophenyl)benzamide]",pest or weed control at 50 µg/cm2,[1],50 to 100%
same,pest or weed control at 200 µg/mL,[2],80 to 100%
same,pest or weed control at 50 µg/cm2,[3],50 to 100%
same,"YFM (Biological Results, rating)",[4],A (80-100)
"O=C(Nc1ccc(F)cc1F)c1cc(NC(=O)[C@H]2[C@H](c3cc(Cl)c(Cl)c(Cl)c3)C2(Cl)Cl)ccc1Cl (relative stereo) [F40, trans-2-Chloro-5-(2,2-dichloro-3-(3,4,5-trichlorophenyl)cyclopropane-1-carboxamido)-N-(2,4-difluorophenyl)benzamide]",pest or weed control at 50 µg/cm2,[1],50 to 100%
same,pest or weed control at 200 µg/mL,[2],80 to 100%
same,pest or weed control at 50 µg/cm2,[3],50 to 100%
same,"YFM (Biological Results, rating)",[4],B (More than 0-Less than 80)
"CC(C)c1ccccc1NC(=O)c1cc(NC(=O)[C@H]2[C@H](c3cc(Cl)cc(Cl)c3)C2(Cl)Cl)ccc1Cl (relative stereo) [F41, trans-2-Chloro-5-(2,2-dichloro-3-(3,5-dichlorophenyl)cyclopropane-1-carboxamido)-N-(2-isopropylphenyl)benzamide]",pest or weed control at 50 µg/cm2,[1],50 to 100%
same,pest or weed control at 200 µg/mL,[2],0 to 80%
same,pest or weed control at 50 µg/cm2,[3],50 to 100%
same,"YFM (Biological Results, rating)",[4],A (80-100)
